Assay: Log P by HPLC on reversed phase columns (EEC directive 79/831 Annex V.A8)
Format: physicochemical
Settings: method marked [a]
Summary of the method: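 Reversed-phase HPLC per EEC 79/831 Annex V.A8, LC-UV with 10→95% acetonitrile linear gradient; eluent [a] 0.1% formic acid (acidic), [b] 0.001 M ammonium acetate (neutral), [c] 0.1% phosphoric acid (acidic). Calibrated with C3–C16 straight-chain alkan-2-ones, linear interpolation of retention times; multiple values joined by "+".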

Row | SMILES | LogP
1 | COC(=O)C1(NC(=O)c2sc(C#N)c(Br)c2C)CCC1 [1.0680] | 2.71^[a]
2 | COC(=O)CNC(=O)c1sc(Cl)c(Cl)c1C#N [1.0681] | 2.17^[a]
3 | COC(=O)C1(NC(=O)c2sc(Cl)c(Cl)c2C#N)CC1 [1.0682] | 2.33^[a]
4 | CCOC(=O)C1(NC(=O)c2sc(C#N)c(Cl)c2Br)CCC1 [1.0683] | 3.34^[a]
5 | COC(=O)C(C)(C)NC(=O)c1sc(Cl)c(Cl)c1C#N [1.0684] | 2.73^[a]
6 | CCOC(=O)C(Cc1ccccc1)NC(=O)c1sc(Cl)c(Cl)c1C#N (stereo not drawn) [1.0685] | 3.98^[a]
7 | COC(=O)C1(NC(=O)c2sc(Cl)c(Cl)c2C#N)CCC1 [1.0686] | 2.79^[a]
8 | CCOC(=O)C1(NC(=O)c2sc(Cl)c(Cl)c2C#N)CCC1 [1.0687] | 3.16^[a]
9 | N#CCNC(=O)c1sc(Cl)c(Cl)c1C#N [1.0688] | 2.04^[a]
10 | CCOC(=O)CNC(=O)c1sc(Br)c(C#N)c1Cl [1.0689] | 2.57^[a]
11 | COC(=O)CNC(=O)c1sc(Br)c(C#N)c1Cl [1.0690] | 2.19^[a]
12 | CCOC(=O)C1(NC(=O)c2sc(Br)c(C#N)c2Cl)CC1 [1.0691] | 2.71^[a]
13 | COC(=O)C1(NC(=O)c2sc(Br)c(C#N)c2Cl)CC1 [1.0692] | 2.37^[a]
14 | COC(=O)C(C)(C)NC(=O)c1sc(Br)c(C#N)c1Cl [1.0693] | 2.84^[a]
15 | CCOC(=O)C(NC(=O)c1sc(Br)c(C#N)c1Cl)C(C)C (stereo not drawn) [1.0694] | 3.83^[a]
16 | COC(=O)C(NC(=O)c1sc(Cl)c(Cl)c1C#N)C1CC1 (stereo not drawn) [1.0695] | 2.89^[a]
17 | CCOC(=O)CNC(=O)c1sc(F)c(Br)c1Br [1.0697] | 3.01^[a]
18 | COC(=O)CNC(=O)c1sc(F)c(Br)c1Br [1.0698] | 2.60^[a]
19 | O=C(NC1(C(=O)O)CC1)c1cc(Br)c(C(F)(F)F)s1 [1.0700] | 2.44^[a]
20 | CCOC(=O)C(C)(C)NC(=O)c1sc(Cl)c(Br)c1Br [1.0701] | 4.30^[a]
21 | O=C(NC1(C(=O)O)CC1)c1sc(Cl)c(Br)c1F [1.0702] | 2.15^[a]
22 | O=C(NC1(C(=O)O)CC1)c1sc(Br)c(Cl)c1F [1.0703] | 2.14^[a]
23 | CCCOC(=O)C1(NC(=O)c2sc(Br)c(Cl)c2C)CC1 [1.0704] | 3.62^[a]
24 | Cc1c(C(=O)NC2(C(=O)OC3CCC3)CCC2)sc(Br)c1Cl [1.0705] | 4.33^[a]
25 | CCOC(=O)C1(NC(=O)c2sc(F)c(Br)c2Br)CC1 [1.0706] | 3.17^[a]

Row | SMILES | LogP
26 | COC(=O)C1(NC(=O)c2sc(F)c(Br)c2Br)CC1 [1.0707] | 2.76^[a]
27 | COC(=O)C(C)(C)NC(=O)c1sc(F)c(Br)c1Br [1.0708] | 3.38^[a]
28 | CCOC(=O)C(NC(=O)c1sc(F)c(Br)c1Br)C(C)C (stereo not drawn) [1.0709] | 4.48^[a]
29 | COC(=O)C(NC(=O)c1sc(F)c(Br)c1Br)C1CC1 (stereo not drawn) [1.0710] | 3.55^[a]
30 | CCOC(=O)C(Cc1ccccc1)NC(=O)c1sc(F)c(Br)c1Br (stereo not drawn) [1.0711] | 4.67^[a]
31 | COC(=O)C1(NC(=O)c2sc(F)c(Br)c2Br)CCC1 [1.0712] | 3.41^[a]
32 | CCOC(=O)C1(NC(=O)c2sc(F)c(Br)c2Br)CCC1 [1.0713] | 3.88^[a]
33 | N#CCNC(=O)c1sc(F)c(Br)c1Br [1.0714] | 2.39^[a]
34 | CCOC(=O)CNC(=O)c1cc(Br)c(C(F)(F)F)s1 [1.0715] | 3.00^[a]
35 | COC(=O)CNC(=O)c1cc(Br)c(C(F)(F)F)s1 [1.0716] | 2.65^[a]
36 | COC(=O)C1(NC(=O)c2cc(Br)c(C(F)(F)F)s2)CC1 [1.0717] | 2.87^[a]
37 | COC(=O)C(C)(C)NC(=O)c1cc(Br)c(C(F)(F)F)s1 [1.0718] | 3.23^[a]
38 | CCOC(=O)C(NC(=O)c1cc(Br)c(C(F)(F)F)s1)C(C)C (stereo not drawn) [1.0719] | 4.18^[a]
39 | COC(=O)C(NC(=O)c1cc(Br)c(C(F)(F)F)s1)C1CC1 (stereo not drawn) [1.0720] | 3.41^[a]
40 | CCOC(=O)C(Cc1ccccc1)NC(=O)c1cc(Br)c(C(F)(F)F)s1 (stereo not drawn) [1.0721] | 4.36^[a]
41 | COC(=O)C1(NC(=O)c2cc(Br)c(C(F)(F)F)s2)CCC1 [1.0722] | 3.33^[a]
42 | CCOC(=O)C1(NC(=O)c2cc(Br)c(C(F)(F)F)s2)CCC1 [1.0723] | 3.70^[a]
43 | N#CCNC(=O)c1cc(Br)c(C(F)(F)F)s1 [1.0724] | 2.61^[a]
44 | Cc1c(C(=O)NC2(C(=O)OC3CCC3)CCC2)sc(Cl)c1Br [1.0725] | 4.37^[a]
45 | CCOC(=O)C1(NC(=O)c2cc(Br)c(C(F)(F)F)s2)CC1 [1.0726] | 3.22^[a]
46 | CCOC(=O)C1(NC(=O)c2sc(Cl)c(Cl)c2Br)CSC1 [1.0727] | 3.95^[a]
47 | CCOC(=O)C1(NC(=O)c2sc(Br)c(Br)c2Cl)CSC1 [1.0728] | 3.97^[a]
48 | COC(=O)[C@H](CCSC)NC(=O)c1sc(C#N)c(Br)c1C [1.0729] | 3.03^[a]
49 | COC(=O)[C@H](CCSC)NC(=O)c1sc(C#N)c(Cl)c1C [1.0730] | 2.97^[a]
50 | CCOC(=O)C(CO)NC(=O)c1sc(C#N)c(Br)c1Br (stereo not drawn) [1.0731] | 2.62^[a]

Row | SMILES | LogP
51 | CCOC(=O)C(CCSC)NC(=O)c1sc(C#N)c(Br)c1Br (stereo not drawn) [1.0732] | 3.81^[a]
52 | COC(=O)C(CCSC)NC(=O)c1sc(C#N)c(Br)c1Br (stereo not drawn) [1.0733] | 3.23^[a]
53 | COC(=O)[C@H](CCSC)NC(=O)c1sc(C#N)c(Br)c1Br [1.0734] | 3.40^[a]
54 | COC(=O)C(CCSC)NC(=O)c1sc(Cl)c(Br)c1C (stereo not drawn) [1.0735] | 3.63^[a]
55 | CCOC(=O)[C@H](CCSC)NC(=O)c1sc(Cl)c(Br)c1C [1.0736] | 4.02^[a]
56 | CNC(=O)CNC(=O)c1sc(Br)c(Br)c1F [1.0737] | 1.81^[a]
57 | CNC(=O)CNC(=O)c1sc(Cl)c(Cl)c1Br [1.0738] | 2.08^[a]
58 | CCOC(=O)CNC(=O)c1sc(C#N)c(Br)c1Br [1.0739] | 2.75^[a]
59 | CCOC(=O)C1(NC(=O)c2sc(C#N)c(Br)c2Br)CC1 [1.0740] | 3.02^[a]
60 | CCOC(=O)C(C#N)NC(=O)c1sc(Br)c(Br)c1Cl (stereo not drawn) [1.0741] | 3.34^[a]
61 | CCOC(=O)C(C#N)NC(=O)c1sc(C#N)c(Br)c1C (stereo not drawn) [1.0742] | 2.66^[a]
62 | CCOC(=O)C(C#N)NC(=O)c1sc(Cl)c(Cl)c1Br (stereo not drawn) [1.0743] | 3.35^[a]
63 | CCOC(=O)C(C#N)NC(=O)c1sc(Cl)c(Br)c1Br (stereo not drawn) [1.0744] | 3.38^[a]
64 | N#CCNC(=O)c1sc(Cl)c(Cl)c1C(F)F [1.0745] | 2.50^[a]
65 | CCOC(=O)C(C)(C)NC(=O)c1sc(Cl)c(Cl)c1C(F)F [1.0746] | 3.55^[a]
66 | COC(=O)C(NC(=O)c1sc(Cl)c(Cl)c1C(F)F)C(=O)OC [1.0748] | 3.00^[a]
67 | CCOC(=O)CN(OC)C(=O)c1sc(C#N)c(Br)c1C [1.0749] | 3.23^[a]
68 | COC(=O)[C@H](CCSC)NC(=O)c1sc(Br)c(Br)c1Cl [1.0750] | 4.04^[a]
69 | COC(=O)C(CCSC)NC(=O)c1sc(C#N)c(Br)c1C (stereo not drawn) [1.0751] | 3.06^[a]
70 | CCOC(=O)C(CSC)NC(=O)c1sc(C#N)c(Cl)c1Cl (stereo not drawn) [1.0752] | 3.54^[a]
71 | CCOC(=O)C(CSC)NC(=O)c1sc(Cl)c(Br)c1C (stereo not drawn) [1.0753] | 3.97^[a]
72 | CCOC(=O)C(CSC)NC(=O)c1sc(Cl)c(Cl)c1C#N (stereo not drawn) [1.0754] | 3.37^[a]
73 | CCOC(=O)C(CSC)NC(=O)c1sc(Br)c(Br)c1C#N (stereo not drawn) [1.0755] | 3.40^[a]
74 | CCOC(=O)C(CSC)NC(=O)c1sc(Br)c(Cl)c1C (stereo not drawn) [1.0756] | 3.94^[a]
75 | CC(C)(C)OC(=O)C1(NC(=O)c2sc(Br)c(Br)c2Cl)CC(F)(F)C1 [1.0757] | 4.89^[a]

Row | SMILES | LogP
76 | CCOC(=O)C(C#N)NC(=O)c1sc(Cl)c(Cl)c1C (stereo not drawn) [1.0758] | 3.23^[a]
77 | COC(=O)C(CCSC)NC(=O)c1sc(Br)c(Cl)c1C (stereo not drawn) [1.0759] | 3.64^[a]
78 | CCOC(=O)C(C)(C)NC(=O)c1sc(Cl)c(Br)c1C [1.0760] | 3.66^[a]
79 | CCOC(=O)C(C)(C)NC(=O)c1sc(Br)c(Cl)c1C [1.0764] | 3.71^[a]
80 | CCOC(=O)[C@H](CCSC)NC(=O)c1sc(Br)c(Cl)c1C [1.0765] | 4.01^[a]
81 | COC(=O)C(CCSC)NC(=O)c1sc(Br)c(Br)c1Cl (stereo not drawn) [1.0766] | 4.04^[a]
82 | COC(=O)[C@H](CCSC)NC(=O)c1sc(Cl)c(Br)c1C [1.0767] | 3.74^[a]
83 | COC(=O)[C@H](CCSC)NC(=O)c1sc(Br)c(Cl)c1C [1.0768] | 3.60^[a]
84 | CCOC(=O)C(CSC)NC(=O)c1sc(C#N)c(Br)c1C (stereo not drawn) [1.0769] | 3.26^[a]
85 | COC(=O)C(CCSC)NC(=O)c1sc(Cl)c(Cl)c1C#N (stereo not drawn) [1.0770] | 3.14^[a]
86 | CCOC(=O)C(NC(=O)c1sc(C#N)c(Cl)c1C)C(=O)OCC [1.0771] | 3.20^[a]
87 | CCOC(=O)C(NC(=O)c1sc(Br)c(Br)c1F)C(=O)OCC [1.0772] | 3.91^[a]
88 | CCOC(=O)C(NC(=O)c1sc(C#N)c(Br)c1C)C(=O)OCC [1.0773] | 3.23^[a]
89 | CCOC(=O)C(NC(=O)c1sc(Cl)c(Cl)c1C#N)C(=O)OCC [1.0774] | 3.40^[a]
90 | CCOC(=O)C(NC(=O)c1sc(Cl)c(Cl)c1Br)C(=O)OCC [1.0775] | 4.30^[a]
91 | CCOC(=O)C(COC)NC(=O)c1sc(Br)c(Br)c1Cl (stereo not drawn) [1.0776] | 3.91^[a]
92 | CCOC(=O)C(COC)NC(=O)c1sc(Cl)c(Cl)c1Br (stereo not drawn) [1.0777] | 3.94^[a]
93 | COC(=O)C(CCSC)NC(=O)c1sc(Br)c(Br)c1C#N (stereo not drawn) [1.0778] | 3.37^[a]
94 | CCOC(=O)C(CO)NC(=O)c1sc(Br)c(Br)c1Cl (stereo not drawn) [1.0779] | 2.89^[a]
95 | CCOC(=O)C(CO)NC(=O)c1sc(Cl)c(Cl)c1Br (stereo not drawn) [1.0780] | 3.06^[a]
96 | CCOC(=O)CNC(=O)c1sc(Br)c(Cl)c1Br [1.0781] | 3.40^[a]
97 | CCOC(=O)C1(NC(=O)c2sc(Br)c(Cl)c2Br)CC1 [1.0782] | 3.56^[a]
98 | CCOC(=O)C(NC(=O)c1sc(Br)c(Br)c1Cl)C(=O)OCC [1.0783] | 4.33^[a]
99 | C#CCOC(=O)C1(NC(=O)c2sc(C#N)c(Cl)c2Cl)CC1 [1.0784] | 2.73^[a]

Source: US12642270B2, “Substituted thiophene carboxamides, thiophene carboxylic acids and derivatives thereof” (Bayer Aktiengesellschaft, priority 2019, dated 2026)
